According to patent US12128040B2, “Selective estrogen receptor degraders” (Eli Lilly and Company, priority 2018, dated 2024):

Legend:
ERα receptor [1] = assay: PRα induction assay in MCF7 cells (ERα agonism); type: cell-based; settings: Homo sapiens, 24 hours, agonist mode, read-out: Relative IC50 (μM), PRα induction
Description: The purpose of the following PRα induction assay is to determine whether a test compound has agonistic activity against ERα receptor (an agonist would be expected to activate the receptor.)
Culture MCF7 (purchased from ATCC HTB-22) in DMEM media supplemented with 10% FBS, 0.01 mg/mL human insulin 1 and 1% penicillin/streptomycin antibiotics and plate the cells (prior to becoming 70% confluent) in 384-well flat-bottom plates at a density of 4,000 cells per well in 20 μL volume in DMEM phenol red free media containing 10% FBS (charcoal stripped). Incubate the cells overnight in a cell culture incubator (5% CO2, 95% relative humidity at 37° C.) and allow the cells to attach to the plate. The following day, dose the cells with test compound. Use an Echo 555 acoustic dispenser to prepare compound serial dilutions (1:3) in a range from 6 μM to 0.0003 μM. […]
The following day, wash cells with PBS 0.05% TWEEN® 20 (2×20 μL) and incubate with secondary antibody (20 μL/well) (1:1000 dilution, Goat anti-rabbit IgM ALEXA FLUOR™ 488) in PBS 1% BSA for 105 minutes at room temperature. […] Scan plates with ACUMEN EXPLORER™ [Laser-scanning fluorescence microplate cytometer manufactured by TTP LABTECH LTD] to measure progesterone receptor alpha. […]

ERα receptor [2] = assay: PRα inhibition (ERα functional antagonism) cell assay in MCF7 cells; type: cell-based; settings: Homo sapiens, pretreated with 0.47 nM estradiol, n=15, read-out: Relative IC50 (nM), PRα inhibition
Source text: The purpose of the following PRα inhibition (ERα functional antagonism) cell assay is to determine the antagonistic activity of a test compound against the ERα receptor. An antagonist in this assay is expected to block the function of the ERα receptor.
Carry out the assay conditions as detailed in the ERα degradation Cell base Acumen assay above, using the MCF7 cell line except that, prior to test compound dispensing, remove the media from the cell plate and pretreat all wells except for the negative control wells (column 24 of the plate) with assay media containing 0.47 nM estradiol for 30 minutes. In this assay, carry out immunostaining for the detection of PRα and scan the plates with ACUMEN EXPLORER™ [Laser-scanning fluorescence microplate cytometer manufactured by TTP LABTECH LTD] to measure PRα. Image analysis is based on cellular fluorescent signals for identifying positive cells. Identify PRα positive cells by mean intensity. Use total intensity at 575-640 from propidium iodide/DNA to identify individual cells. Assay output is % PRα positive cells. Determine the IC50 by curve fitting to a four parameter logistic for each output using GENE DATA™.

With O=C(c1ccc(OCCN2CC(CF)C2)cc1)c1c(-c2ccc(C(F)(F)F)cc2F)cnc2cc(O)ccc12 [Example 1, (4-{2-[3-(Fluoromethyl)azetidin-1-yl]ethoxy}phenyl){3-[2-fluoro-4-(trifluoromethyl)phenyl]-7-hydroxyquinolin-4-yl}methanone] as the compound, how does the IC50 (ERα receptor [1]) read?
The IC50 was > 2 µM.

And the IC50 (ERα receptor [2])?
The IC50 was 15.8 ± 9.04 nM.
